Values quoted from earlier work, collected in PMC7576618 (British Journal of Clinical Pharmacology, 2020).
Read-outs that look alike come from different tables or passages of the source.

What was measured:
mGlu2 receptor [1] = details: read-out: EC50 (assay system used by Eli Lilly); cited from earlier work
mGlu2 receptor [2] = details: read-out: in vitro EC50 for mGlu2 receptor; cited from earlier work
[3] = humans; cited from earlier work
[4] = active compound LY2812223; cited from earlier work

What does the source list for `N[C@@]1(C(=O)O)CC[C@H]2[C@H](C(=O)O)[C@H]21` [LY354740, (+)‐2‐aminobicyclo[3.1.0]hexane‐2,6‐dicarboxylic acid]?
EC50 (mGlu2 receptor [1]): 5.1 nM; EC50 (mGlu2 receptor [2]): 18.3 nM

Which “plasma exposure of the prodrug relative to that of LY404039” value [3] does the source give for `CSCC[C@H](N)C(=O)N[C@@]1(C(=O)O)CS(=O)(=O)[C@H]2[C@H](C(=O)O)[C@H]21` [LY2140023] here?
The value was “approximately 30%”.

Which “plasma levels of prodrug relative to its active compound” value [4] does the source give for `C[C@H](N)C(=O)N[C@@]1(C(=O)O)C[C@@H](Sc2nnc[nH]2)[C@H]2[C@H](C(=O)O)[C@H]21` [LY2979165] here?
The value was less than 1%.
